Reference: patent US20100286145A1, “ISOPHTHALAMIDE DERIVATIVES INHIBITING BETA-SECRETASE ACTIVITY” (CoMentis, Inc., priority 2007, published 2010)
Where two headings read alike, the source gives them in different places.

Legend:
memapsin 2 = memapsin 2 (Homo sapiens, UniProt P56817); assay: Inhibition of memapsin 2 beta-secretase activity (fluorogenic substrate FS-2); format: biochemical; conditions: memapsin 2, pH 4, 37° C., read-out: M2Ki
Method in brief: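 Memapsin 2 pre-incubated 20 min with compound at pH 4, 37° C, then FS-2 substrate (MCA-SEVNLDAEFK-DNP, APP Swedish cleavage site) added. Rate of fluorescence increase compared with uninhibited controls, fitted to a tight-binding inhibition model.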

[1] = tested on: Aβ production in Chinese hamster ovary cells that over-express human APP695 with the London and Swedish mutations; assay: Cellular Aβ IC50 determination (Aβ40 sandwich ELISA); format: cell-based; conditions: cellular Aβ production, read-out: IC50
Method in brief: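 CHO cells overexpressing human APP695 with London and Swedish mutations, seeded at 10% confluency, treated with compounds up to about 4 μM final (0.4% DMSO). Secreted Aβ40 measured by sandwich ELISA relative to control and fitted to a 4-parameter IC50 model.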

memapsin 2, sequence (P56817 46-501): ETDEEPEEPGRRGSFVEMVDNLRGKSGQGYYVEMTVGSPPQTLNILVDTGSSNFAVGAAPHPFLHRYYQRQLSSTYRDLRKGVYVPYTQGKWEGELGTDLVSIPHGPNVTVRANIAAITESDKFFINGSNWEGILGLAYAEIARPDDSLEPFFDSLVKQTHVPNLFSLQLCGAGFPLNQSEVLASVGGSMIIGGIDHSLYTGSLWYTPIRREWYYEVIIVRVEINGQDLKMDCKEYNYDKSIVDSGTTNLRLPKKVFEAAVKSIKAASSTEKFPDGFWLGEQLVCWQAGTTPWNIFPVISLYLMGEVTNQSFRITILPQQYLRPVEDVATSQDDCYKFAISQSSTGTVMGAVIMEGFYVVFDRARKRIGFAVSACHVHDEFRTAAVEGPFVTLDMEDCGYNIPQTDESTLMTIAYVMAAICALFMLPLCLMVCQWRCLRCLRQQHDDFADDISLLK

Structure (SMILES) | Ki (memapsin 2; 20 minutes pre-incubation) [nM] | IC50 ([1]; Cricetulus griseus) [nM] | Ki (memapsin 2; fluorogenic substrate FS-2) [nM] | IC50 [1] [nM]
COc1cccc(CNC[C@@H](O)[C@H](Cc2ccccc2)NC(=O)c2cc(C(=O)N(C)Cc3nc(C)cs3)cc(N3CCCC3=O)c2)c1 [Compound 194, N1-((2S,3R)-3-hydroxy-4-(3-methoxybenzylamino)-1-phenylbutan-2-yl)-N3-methyl-N3-((4-methylthiazol-2-yl)methyl)-5-(2-oxopyrrolidin-1-yl)isophthalamide] | < 300 | < 1000 | – | –
C[C@@H](NC(=O)c1cc(C(=O)N[C@@H](Cc2ccccc2)[C@H](O)CNCc2cccc(C(=O)O)c2)cc(N(C)S(C)(=O)=O)c1)c1ccccc1 [Compound 113, 3-(((2R,3S)-2-hydroxy-3-(3-(N-methylmethylsulfonamido)-5-((R)-1-phenylethylcarbamoyl)benzamido)-4-phenylbutylamino)methyl)benzoic acid] | < 300 | < 1000 | – | –
Cc1csc(CN(C)C(=O)c2cccc(C(=O)N[C@@H](Cc3ccccc3)[C@H](O)CNCc3cc(N)cc(C(C)C)c3)c2)n1 [Compound 75, N1-((2S,3R)-4-(3-amino-5-isopropylbenzylamino)-3-hydroxy-1-phenylbutan-2-yl)-N3-methyl-N3-((4-methylthiazol-2-yl)methyl)isophthalamide] | < 300 | < 1000 | – | –
Cc1csc(CN(C)C(=O)c2cc(OS(C)(=O)=O)cc(C(=O)N[C@@H](Cc3ccccc3)[C@H](O)CNCc3cncc(C(C)C)c3)c2)n1 [Compound 100, 3-((2S,3R)-3-hydroxy-4-((5-isopropylpyridin-3-yl)methylamino)-1-phenylbutan-2-ylcarbamoyl)-5-(methyl((4-methylthiazol-2-yl)methyl)carbamoyl)phenyl methanesulfonate] | < 300 | < 1000 | – | –
CNC(=O)c1cc(CNC[C@@H](O)[C@H](Cc2ccccc2)NC(=O)c2cccc(C(=O)N(C)Cc3nc(C)cs3)c2)cc(OC)c1 [Compound 112, N1-((2S,3R)-3-hydroxy-4-(3-methoxy-5-(methylcarbamoyl)benzylamino)-1-phenylbutan-2-yl)-N3-methyl-N3-((4-methylthiazol-2-yl)methyl)isophthalamide] | < 300 | < 1000 | – | –
COc1cccc(CNC[C@@H](O)[C@H](Cc2ccccc2)NC(=O)c2cc(C(=O)NCc3nc(C)cs3)cc(N3CCCC3)c2)c1 [Compound 187, N1-((2S,3R)-3-hydroxy-4-(3-methoxybenzylamino)-1-phenylbutan-2-yl)-N3-((4-methylthiazol-2-yl)methyl)-5-(pyrrolidin-1-yl)isophthalamide] | < 300 | > 5000 | – | –
C=C(C)c1cc(CNC[C@@H](O)[C@H](Cc2ccccc2)NC(=O)c2cccc(C(=O)N(C)Cc3nc(C)cs3)c2)c[n+]([O-])c1 [Compound 269, 3-(((2R,3S)-2-hydroxy-3-(3-(methyl((4-methylthiazol-2-yl)methyl)carbamoyl)benzamido)-4-phenylbutylamino)methyl)-5-(prop-1-en-2-yl)pyridine 1-oxide] | – | < 1000 | < 300 | –
Cc1csc(CN(C)C(=O)c2cccc(C(=O)N[C@@H](Cc3ccccc3)[C@H](O)CNCc3cccc(Cl)c3)c2)n1 [Compound 104, N1-((2S,3R)-4-(3-chlorobenzylamino)-3-hydroxy-1-phenylbutan-2-yl)-N3-methyl-N3-((4-methylthiazol-2-yl)methyl)isophthalamide] | < 300 | < 1000 | – | –
COc1cccc(CNC[C@@H](O)[C@H](Cc2ccccc2)NC(=O)c2cc(C(=O)N(C)Cc3nc(C)cs3)cc(-n3cccc3)c2)c1 [Compound 238, N1-((2S,3R)-3-hydroxy-4-(3-methoxybenzylamino)-1-phenylbutan-2-yl)-N3-methyl-N3-((4-methylthiazol-2-yl)methyl)-5-(1H-pyrrol-1-yl)isophthalamide] | – | < 1000 | < 300 | –
C[C@@H](NC(=O)c1cc(C(=O)N[C@@H](Cc2ccccc2)[C@H](O)CNCc2cccc(CO)c2)cc(N(C)S(C)(=O)=O)c1)c1ccccc1 [Compound 107, N1-((2S,3R)-3-hydroxy-4-(3-(hydroxymethyl)benzylamino)-1-phenylbutan-2-yl)-5-(N-methylmethylsulfonamido)-N3-((R)-1-phenylethyl)isophthalamide] | < 300 | < 1000 | – | –
Cc1csc(CN(C)C(=O)c2cc(C(=O)N[C@@H](Cc3ccccc3)[C@H](O)CNCc3cncc(C(C)(C)F)c3)cc(C(C)C)c2)n1 [Compound 277, N1-((2S,3R)-4-((5-(2-fluoropropan-2-yl)pyridin-3-yl)methylamino)-3-hydroxy-1-phenylbutan-2-yl)-5-isopropyl-N3-methyl-N3-((4-methylthiazol-2-yl)methyl)isophthalamide] | – | < 1000 | < 300 | –
Cc1csc(CN(C)C(=O)c2cc(C(=O)N[C@@H](Cc3ccccc3)[C@H](O)CNCc3cncc(C(C)C)c3)cc(C(F)F)c2)n1 [Compound 204, 5-(difluoromethyl)-N1-((2S,3R)-3-hydroxy-4-((5-isopropylpyridin-3-yl)methylamino)-1-phenylbutan-2-yl)-N3-methyl-N3-((4-methylthiazol-2-yl)methyl)isophthalamide] | < 300 | < 1000 | – | –
Cc1csc(CN(C)C(=O)c2cc(C(=O)N[C@@H](Cc3ccccc3)[C@H](O)CNCc3cncc(C(C)C)c3)cc(N3CCCCC3)c2)n1 [Compound 231, N1-((2S,3R)-3-hydroxy-4-((5-isopropylpyridin-3-yl)methylamino)-1-phenylbutan-2-yl)-N3-methyl-N3-((4-methylthiazol-2-yl)methyl)-5-(piperidin-1-yl)isophthalamide] | – | > 5000 | < 300 | –
Cc1csc(CN(C)C(=O)c2cccc(C(=O)N[C@@H](Cc3ccccc3)[C@H](O)CNCc3cc(NC(=O)OCc4ccccc4)cc(C(C)C)c3)c2)n1 [Compound 74, benzyl 3-(((2R,3S)-2-hydroxy-3-(3-(methyl((4-methylthiazol-2-yl)methyl)carbamoyl)benzamido)-4-phenylbutylamino)methyl)-5-isopropylphenylcarbamate] | < 300 | < 1000 | – | –
COC(=O)c1cc(CNC[C@@H](O)[C@H](Cc2ccccc2)NC(=O)c2cc(C(=O)N[C@H](C)c3ccccc3)cc(N(C)S(C)(=O)=O)c2)cc(OC)c1 [Compound 114, methyl 3-(((2R,3S)-2-hydroxy-3-(3-(N-methylmethylsulfonamido)-5-((R)-1-phenylethylcarbamoyl)benzamido)-4-phenylbutylamino)methyl)-5-methoxybenzoate] | < 300 | < 1000 | – | –
Cc1csc(CN(C)C(=O)c2cccc(C(=O)N[C@@H](Cc3ccccc3)[C@H](O)CNCc3cc(C(C)C)ccn3)c2)n1 [Compound 5, N1-((2S,3R)-3-hydroxy-4-((4-isopropylpyridin-2-yl)methylamino)-1-phenylbutan-2-yl)-N3-methyl-N3-((4-methylthiazol-2-yl)methyl)isophthalamide] | < 300 | < 1000 | – | –
Cc1csc(CN(C)C(=O)c2cc(C(=O)N[C@@H](Cc3ccccc3)[C@H](O)CNCc3cncc(C(C)C)c3)cc(-c3cccnc3)c2)n1 [Compound 200, N1-((2S,3R)-3-hydroxy-4-((5-isopropylpyridin-3-yl)methylamino)-1-phenylbutan-2-yl)-N3-methyl-N3-((4-methylthiazol-2-yl)methyl)-5-(pyridin-3-yl)isophthalamide] | < 300 | < 1000 | – | –
CCS(=O)(=O)c1cc(CNC[C@@H](O)[C@H](Cc2ccccc2)NC(=O)c2cccc(C(=O)N(C)Cc3nc(C)cs3)c2)cc(C(C)C)c1 [Compound 188, N1-((2S,3R)-4-(3-(ethylsulfonyl)-5-isopropylbenzylamino)-3-hydroxy-1-phenylbutan-2-yl)-N3-methyl-N3-((4-methylthiazol-2-yl)methyl)isophthalamide] | < 300 | < 1000 | – | –
Cc1csc(CN(C)C(=O)c2cccc(C(=O)N[C@@H](Cc3ccccc3)[C@H](O)CNCc3ccccn3)c2)n1 [Compound 64, N1-((2S,3R)-3-hydroxy-1-phenyl-4-(pyridin-2-ylmethylamino)butan-2-yl)-N3-methyl-N3-((4-methylthiazol-2-yl)methyl)isophthalamide] | > 501 | 1000 to 5000 | – | –
Cc1csc(CN(C)C(=O)c2cccc(C(=O)N[C@@H](Cc3ccccc3)[C@H](O)CNCc3cccc(-c4ccccc4)c3)c2)n1 [Compound 267, N1-((2S,3R)-4-(biphenyl-3-ylmethylamino)-3-hydroxy-1-phenylbutan-2-yl)-N3-methyl-N3-((4-methylthiazol-2-yl)methyl)isophthalamide] | – | < 1000 | < 300 | –
Cc1csc(CN(C)C(=O)c2cc(C(=O)N[C@@H](Cc3ccccc3)[C@H](O)CNCc3cccc(C(C)(F)F)c3)cc(N(C)C)c2)n1 [Compound 227, N1-((2S,3R)-4-(3-(1,1-difluoroethyl)benzylamino)-3-hydroxy-1-phenylbutan-2-yl)-5-(dimethylamino)-N3-methyl-N3-((4-methylthiazol-2-yl)methyl)isophthalamide] | – | < 1000 | < 300 | –
COc1cccc(CN(C)C[C@@H](O)[C@H](Cc2ccccc2)NC(=O)c2cccc(C(=O)N(C)Cc3nc(C)cs3)c2)c1 [Compound 1, N^1-((2S,3R)-3-hydroxy-4-((3-methoxybenzyl)(methyl)amino)-1-phenylbutan-2-yl)-N^3-methyl-N^3-((4-methylthiazol-2-yl)methyl)isophthalamide] | < 300 | – | – | < 1000
